The values below come from PMC4460047 (PLoS ONE, 2015).

As a reminder, the share remaining is the share of the starting amount still present when the sample was taken.

Several values for one entry are separate records, joined by “and”; a condition that tells them apart may be missing. Equal values may be shown once. Marks after values point to notes of the source that are not given here.

The nature of data set [1]: Chemical stability in phosphate buffered saline pH 7.4. The following applies: for %Compd at 6 h, pH 7.4: percent remaining after 6 h of incubation at 37°C in PBS buffer pH 7.4; for L- and D-aspartate derivatives produced by deamidation at the side chain: buffer pH 7.4, data not shown. Format: physicochemical. The method, then:
(§1) The chemical and metabolic stability of PEA and all prodrugs were studied by incubating each compound (5 μL of a […] solution in DMSO, or DMSO as control) with 495 μL of 10 mM phosphate buffered saline pH 7.4 for chemical stability, 80% v/v rat plasma or 20% w/v rat liver homogenate prepared accordingly to previously described procedures for metabolic stability, reaching a final concentration of 50 nm for the test compound.
(§2) Rat plasma and liver samples were pre-incubated at 37°C for 10 min before adding the compounds. After incubation for different time periods (0, 15, 30, 60, 120, 240 and 360 min), samples were deproteinized by adding 100 μL of acetonitrile with 75 nmol L^-1 IS (PEA-d4). The samples were centrifuged (14 000 g, 10 min, 4°C), and the supernatants were analyzed by HPLC–ESI–MS/MS. For each tested compound, a multiple reaction monitoring (MRM) ESI–MS/MS method was set up in order to monitor the relative concentration of compound and released PEA at the different incubation times, compared to the time t = 0, in rat plasma and liver homogenate.

Data set [2] is described as follows: Stability in 20% w/v rat liver homogenate. Format: in vitro ADME. The following applies: 37°C; for remaining at 2 h, 50 nM / half-life at 50 nM: rat, 20% w/v rat liver homogenate; for remaining at 2 h, 50 nM: read-out: Percent remaining after 2 h incubation in rat liver homogenate; for half-life at 50 nM: read-out: Rat Liver Compd t 1/2. As to the method:
as §1, §2

Data set [3] is described as follows: Stability and PEA release in 80% v/v rat plasma. The following applies: for half-life at 50 nM: rat, pH 7.4, 80% v/v rat plasma, read-out: Rat Plasma Compd t 1/2; for half-life at 50 nM / Rat Plasma Compd t 1/2: 50 nm compound; for remaining at 6 h, 50 nM: pH 7.4, read-out: Percent remaining after 6 h incubation in rat plasma. Format: in vitro ADME. As to the method:
as §1, §2
Cmax and tmax in rat plasma were read from the raw data as the coordinates of the highest concentration observed. A Thermo TSQ Quantum triple-quadrupole mass spectrometer (Thermo Italia, Milan, Italy) with heated electrospray ionization (H-ESI) ion source was used for mass detection and analysis. Mass spectrometric analyses were done in positive ion mode. H-ESI interface parameters were set as follows: probe middle (D) position; capillary temperature 270°C; spray voltage 3.0 kV. Nitrogen was used as nebulizing gas at the following pressure: sheath gas 35 psi; auxiliary gas 15 arbitrary units (a.u.). Argon was used as the collision gas at a pressure of approximately 1.5 mtorr (1 torr = 133.3 Pa). For quantitative analysis, the following parent ion → product ions transitions were selected: PEA (1): m/z 300.2 → m/z 62.3 (tube lens 60 V; collision energy 19 eV); PEA-d4 (Internal Standard): m/z 304.2 → m/z 66.3 + m/z 287.2 (tube lens 72 V; collision energy 15, 12 eV). MRM transitions, tube lens voltages and collision energies for compounds 3–5, 7–9, 19–24, 26–31, and 33 are reported in the S1 File. […] The coefficients of correlation (r^2) were >0.99 for all curves. The LOQ was 1 nmol mL^−1 for all analytes. Extraction efficiency was determined by comparing the peak area ratio of spiked samples at three concentration levels (low, intermediate, and high) to those of extracted charcoal treated blank plasma spiked with the corresponding concentrations. The mean extraction recovery ranged from 109% to 91% for all compounds. The specificity of the assay was evaluated by comparison of HPLC–ESI–MS/MS chromatograms of the analytes at the LOQ to those of charcoal treated blank plasma samples in triplicate.

Turning to `CCCCCCCCCCCCCCCC(=O)NCCOC(=O)[C@@H](N)CC(=O)O.Cl` [compound 26, 1-(2-(Palmitoylamino)ethyl) L-aspartate hydrochloride], in data set [1], the “%Compd at 6 h, pH 7.4” value worked out at 85 ± 4%. Further, in data set [2] (2 h), the amount remaining at 2 h, 50 nM was determined as 66 ± 5%. Moreover, the half-life at 50 nM in data set [3] (80% v/v rat plasma, 37°C) was found to be 172 ± 2 min.
`CCCCCCCCCCCCCCCC(=O)N[C@H](C)CO` [compound 31, (R)-α-methyl-PEA]: in data set [1], the “%Compd at 6 h, pH 7.4” value is listed as 95 ± 2%. The amount remaining at 2 h, 50 nM in data set [2] (2 h) was 87 ± 1%. In addition, in data set [3] (80% v/v rat plasma, 37°C, 6 h), the amount remaining at 6 h, 50 nM was 82 ± 4%.
Take (S)-α-methyl-PEA [compound 30]: the “%Compd at 6 h, pH 7.4” value in data set [1] came out at 96 ± 3%. Moreover, the “Percent remaining after 2 h incubation in rat liver homogenate” value in data set [2] (2 h) is given as 79 ± 6% ^f. Besides, in data set [3] (80% v/v rat plasma, 37°C, 6 h), the “Percent remaining after 6 h incubation in rat plasma” value was 80 ± 4% ^e.
For `CCCCCCCCCCCCCCCC(=O)NCCOC(=O)OCOC(=O)C(C)C` [compound 4, Isobutyroyloxymethyl 2-(palmitoylamino)ethyl carbonate], in data set [1], the “%Compd at 6 h, pH 7.4” value came out at 84 ± 1%. The half-life at 50 nM in data set [2] (rat liver homogenate) is less than 1 min; in data set [3] (80% v/v rat plasma, 37°C), 1.1 ± 0.2 min.
With `CCCCCCCCCCCCCCCC(=O)NCCOC(=O)N[C@H](C(=O)O)C(C)C` [compound 9, N-(2-Palmitoylamino-ethyloxy)carbonyl-L-valine], the “%Compd at 6 h, pH 7.4” value in data set [1] was determined as 99 ± 1%. Further, the share remaining at 2 h, 50 nM in data set [2] (2 h) amounted to 92 ± 5%. In addition, the amount remaining at 6 h, 50 nM in data set [3] (80% v/v rat plasma, 37°C, 6 h) turned out to be 98 ± 1%.
As for `CCCCCCCCCCCCCCCC(=O)N[C@H](C)COC(=O)[C@@H](N)C(C)C.Cl` [compound 33, (2R)-2-(palmitoylamino)propyl L-valinate hydrochloride], in data set [1], the “%Compd at 6 h, pH 7.4” value came to 93 ± 4%. Also, the half-life at 50 nM in data set [2] (rat liver homogenate) was 38 min; in data set [3] (80% v/v rat plasma, 37°C) it was 190 ± 3 min. Further, the “Rat plasma half-life relative to L-Val-PEA (20)” value in data set [3] (rat plasma) is 4 fold.
Consider `CCCCCCCCCCCCCCCC(=O)NCCOC(=O)N[C@@H](C)C(=O)O` [compound 8, N-(2-Palmitoylamino-ethyloxy)carbonyl-L-alanine], for which, in data set [1], the “%Compd at 6 h, pH 7.4” value amounted to 103 ± 3%. Also, the half-life at 50 nM in data set [2] (rat liver homogenate) stood at 29 ± 3 min. Moreover, the fraction remaining at 6 h, 50 nM in data set [3] (80% v/v rat plasma, 37°C, 6 h) was 96 ± 2%.
As to `CCCCCCCCCCCCCCCC(=O)NCCOC(=O)OCOC(=O)C1CCCCC1` [compound 5, (Cyclohexanelcarboxyloyloxy)methyl 2-(palmitoylamino)ethyl carbonate], the “%Compd at 6 h, pH 7.4” value in data set [1] was 84 ± 1%. The half-life at 50 nM in data set [2] (rat liver homogenate) amounted to 1.2 ± 0.2 min. In data set [3] (80% v/v rat plasma, 37°C), the “Rat Plasma Compd t 1/2” value came to 5.1 ± 0.5 min and the half-life at 50 nM was 5 min.
Turning to `CCCCCCCCCCCCCCCC(=O)NCCOC(=O)OCOC(C)=O` [compound 3, Acetoxymethyl 2-(palmitoylamino)ethyl carbonate], in data set [1], the “%Compd at 6 h, pH 7.4” value is 86 ± 1%. The half-life at 50 nM in data set [2] (rat liver homogenate) is less than 1 min; in data set [3] (80% v/v rat plasma, 37°C) it was less than 1 min.
For the molecule `CCCCCCCCCCCCCCCC(=O)NCCOC(=O)[C@@H](N)[C@@H](C)CC.Cl` [compound 21, 2-(Palmitoylamino)ethyl L-isoleucinate hydrochloride], the “%Compd at 6 h, pH 7.4” value in data set [1] was 103 ± 6%. Further, the amount remaining at 2 h, 50 nM in data set [2] (2 h) was found to be 65 ± 5%. Besides, in data set [3] (rat plasma), the “Increase in plasma half-life relative to L-Ala-PEA” value came to 200 fold. In data set [3] (80% v/v rat plasma, 37°C), the half-life at 50 nM was found to be 205 ± 16 min.
For `CCCCCCCCCCCCCCCC(=O)NCCOC(=O)[C@@H](N)Cc1c[nH]c2ccccc12.Cl` [compound 22, 2-(Palmitoylamino)ethyl L-tryptophanate hydrochloride], in data set [1], the “%Compd at 6 h, pH 7.4” value is reported as 96 ± 1%. For the same molecule, the half-life at 50 nM in data set [2] (rat liver homogenate) was roughly 36 min. Moreover, in data set [3] (80% v/v rat plasma, 37°C), the “Rat Plasma Compd t 1/2” value is recorded as 4.5 ± 0.5 min and the half-life at 50 nM is roughly 5 min.
As for `CCCCCCCCCCCCCCCC(=O)NCCOC(=O)[C@@H](N)CCC(N)=O.Cl` [compound 24, 2-(Palmitoylamino)ethyl L-glutaminate hydrochloride], the “%Compd at 6 h, pH 7.4” value in data set [1] was found to be 61 ± 3%. The half-life at 50 nM was roughly 80 min in data set [2] (rat liver homogenate) and 18 ± 1 min in data set [3] (80% v/v rat plasma, 37°C).
Regarding `CCCCCCCCCCCCCCCC(=O)NCCOC(=O)[C@H](N)CC(N)=O.Cl` [compound 27, 2-(Palmitoylamino)ethyl D-asparaginate hydrochloride], in data set [1], the “L- and D-aspartate derivatives produced by deamidation at the side chain” value is “about 1%”; the “%Compd at 6 h, pH 7.4” value is on record as 3.5 ± 0.3%. For the same molecule, the half-life at 50 nM in data set [2] (rat liver homogenate) worked out at 55 ± 4 min. Further, the half-life at 50 nM in data set [3] (80% v/v rat plasma, 37°C) was 14 ± 1 min.
Take `CCCCCCCCCCCCCCCC(=O)NCCOC(=O)[C@H](C)N.Cl` [compound 19, 2-(palmitoylamino)ethyl L-alaninate hydrochloride]: the “%Compd at 6 h, pH 7.4” value in data set [1] is reported as 64 ± 5%. Also, in data set [2] (rat liver homogenate), the “Rat Liver Compd t 1/2” value stood at 1.4 ± 0.5 min and the half-life at 50 nM is roughly 1 min. The half-life at 50 nM in data set [3] (80% v/v rat plasma, 37°C) was roughly 1 min.
With `CCCCCCCCCCCCCCCC(=O)NCCOC(=O)NCC(=O)O` [compound 7, N-(2-Palmitoylamino-ethyloxy)carbonyl-glycine], the “%Compd at 6 h, pH 7.4” value in data set [1] was determined as 101 ± 1%. Besides, the half-life at 50 nM in data set [2] (rat liver homogenate) came out at 23 ± 1 min. In addition, in data set [3] (80% v/v rat plasma, 37°C, 6 h), the share remaining at 6 h, 50 nM is 96 ± 4%.
Regarding `CCCCCCCCCCCCCCCC(=O)NCCOC(=O)C[C@H](N)C(=O)O.Cl` [compound 29, 4-(2-(Palmitoylamino)ethyl) L-aspartate hydrochloride], the “%Compd at 6 h, pH 7.4” value in data set [1] was 83 ± 3%. Further, the half-life at 50 nM in data set [2] (rat liver homogenate) came to 21 ± 1 min; in data set [3] (80% v/v rat plasma, 37°C), 262 ± 35 min.
Take `CCCCCCCCCCCCCCCC(=O)NCCOC(=O)[C@@H](N)CC(N)=O.Cl` [compound 23, 2-(Palmitoylamino)ethyl L-asparaginate hydrochloride]: the “L- and D-aspartate derivatives produced by deamidation at the side chain” value in data set [1] is reported as “about 1%”. The “%Compd at 6 h, pH 7.4” value in data set [1] is 3% and 3.3 ± 0.3%. Moreover, the half-life at 50 nM is roughly 3.3 min in data set [1] (phosphate buffered saline, pH 7.4, read-out: t 1/2 in buffered solution at pH 7.4); 24 ± 1 min in data set [2] (rat liver homogenate); roughly 9 min in data set [3] (80% v/v rat plasma, 37°C).
